Source: US10106578B2, “Melanocortin-1 receptor-specific linear peptides” (Palatin Technologies, Inc., priority 2012, dated 2018)
Where a SMILES comes first, the peptide text is derived from it. [ ]: non-standard residue; d: D form. Nle = CCCC[C@H](N)C(=O)O; Orn = NCCC[C@H](N)C(=O)O; Dab = NCC[C@H](N)C(=O)O

Assays:
[1] = target: T1, hMCR-4 (Homo sapiens, UniProt P32245); test: Competitive inhibition binding assay using [I125]-NDP-α-MSH, hMCR-4 membranes; details: HEK-293 membranes, recombinant human MCR-4, [I125]-NDP-α-MSH; read-out: MC-4 Ki (average)
T1 construct: expressed in transfected cells; host or cells: HEK-293 cells (membrane homogenates)
T1 sequence (P32245 whole entry): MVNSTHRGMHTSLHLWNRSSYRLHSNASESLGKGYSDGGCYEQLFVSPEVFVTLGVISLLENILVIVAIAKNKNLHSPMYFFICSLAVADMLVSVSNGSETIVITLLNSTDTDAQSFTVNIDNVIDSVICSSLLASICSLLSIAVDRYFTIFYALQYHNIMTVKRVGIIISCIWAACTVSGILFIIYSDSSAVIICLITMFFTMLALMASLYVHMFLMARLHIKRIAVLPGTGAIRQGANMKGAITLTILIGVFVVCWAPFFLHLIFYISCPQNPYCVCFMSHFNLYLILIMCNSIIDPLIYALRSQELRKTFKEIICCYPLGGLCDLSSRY
Protocol: (§1) A competitive inhibition binding assay was performed using membrane homogenates prepared from HEK-293 cells that express recombinant hMCR-1a or hMCR-4 (in each instance where the h prefix refers to human), or alternatively membrane homogenates from B16-F10 mouse melanoma cells containing endogenous murine MCR-1. In the examples that follow, all MCR-1 and MCR-4 values are for human recombinant receptors, unless otherwise noted. Assays were performed in 96 well polypropylene round-bottom plates (VWR catalog number 12777-030). Membrane homogenates were incubated with 0.1 nM [I^125]-NDP-α-MSH (Perkin Elmer) and increasing concentrations of test peptides of the present invention in buffer containing 25 mM HEPES buffer (pH 7.5) with 100 mM NaCl, 2 mM CaCl2, 2 mM MgCl2, 0.3 mM 1,10-phenanthroline, and 0.2% bovine serum albumin. After incubation for 90 minutes at 37° C., the assay mixture was filtered onto GF/B Unifilter plates (Perkin-Elmer catalog number 6005177) and washed with 3 mL of ice-cold buffer per well. Filters were air dried and 35 μL of scintillation cocktail added to each well. Plates were counted in a Microbeta counter for bound radioactivity. Non-specific binding was measured by inhibition of binding of [I^125]-NDP-α-MSH in the presence of 1 μM NDP-α-MSH. Maximal specific binding (100%) was defined as the difference in radioactivity (cpm) bound to cell membranes in the absence and presence of 1 μM NDP-α-MSH. Each assay was conducted in duplicate and the actual mean values are described, with results less than 0% reported as 0%. Ki values for peptides of the present invention were determined using Graph-Pad PRISM® curve-fitting software.
(§2) Peptides of the following structures were synthesized and purified as described in Section 5 above, with the resulting peptide having the structure depicted. After synthesis and purification, the foregoing peptide was tested as described in Section 8 above, and average MCR-1 and MCR-4 Ki values determined as indicated. All Ki values were determined using [I^125]-NDP-α-MSH. All results are expressed in nM except for Emax values, which are percentage values.

[2] = target: T2, hMCR-1 (Homo sapiens, UniProt Q01726); test: Assay for agonist activity: cAMP accumulation in HBL human melanoma cells; assay type: cell-based; details: compared to reference agonist NDP-α-MSH, read-out: MC-1 Emax (average; cAMP HBL)
T2 construct: endogenous in cells; host or cells: HBL human melanoma cell line
T2 sequence (Q01726 whole entry): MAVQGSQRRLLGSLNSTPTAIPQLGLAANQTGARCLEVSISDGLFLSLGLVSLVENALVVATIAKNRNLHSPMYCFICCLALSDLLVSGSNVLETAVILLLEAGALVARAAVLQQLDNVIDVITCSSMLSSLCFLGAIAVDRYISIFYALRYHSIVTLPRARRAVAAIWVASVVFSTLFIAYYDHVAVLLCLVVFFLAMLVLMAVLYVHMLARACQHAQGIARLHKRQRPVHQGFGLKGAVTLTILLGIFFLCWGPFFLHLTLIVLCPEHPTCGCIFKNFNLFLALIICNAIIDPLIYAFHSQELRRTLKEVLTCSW
Source text: Accumulation of intracellular cAMP was examined as a measure of the ability of the peptides of the present invention to elicit a functional response in a human melanoma cell line, HBL, that express hMCR-1 (see Kang, L., et al., “A selective small molecule agonist of melanocortin-1 receptor inhibits lipopolysaccharide-induced cytokine accumulation and leukocyte infiltration in mice,” J. Leuk. Biol. 80:897-904 (2006)) or HEK-293 cells that express hMCR-4. Confluent HBL cells that express hMCR-1 or HEK-293 cells that express recombinant hMCR-4 were detached from culture plates by incubation in enzyme-free cell dissociation buffer. Dispersed cells were suspended in Earle's Balanced Salt Solution containing 10 mM HEPES (pH 7.5), 1 mM MgCl2, 1 mM glutamine, 0.5% albumin and 0.3 mM 3-isobutyl-1-methyl-xanthine (IBMX), a phosphodiesterase inhibitor. The cells were plated in 96-well plates at a density of 0.4×10^5 cells per well for HBL cells and 0.5×10^5 cells per well for HEK-293 cells and pre-incubated for 10 minutes. Cells were exposed for 15 minutes at 37° C. to peptides of the present invention dissolved in DMSO (final DMSO concentration of 1%) at a concentration range of 0.05-5000 nM in a total assay volume of 200 μL. NDP-α-MSH was used as the reference agonist. cAMP levels were determined by an HTRF® cAMP cell-based assay system from Cisbio Bioassays utilizing cryptate-labeled anti-cAMP and d2-labeled cAMP, with plates read on a Perkin-Elmer Victor plate reader at […]. Data analysis was performed by nonlinear regression analysis with Graph-Pad PRISM® software. Maximum efficacy (Emax) values were determined for each test peptide of the present invention, compared to that achieved by the reference melanocortin agonist NDP-α-MSH.
as §2

[3] = target: T3, hMCR-1a (Homo sapiens, UniProt Q01726); test: Competitive inhibition binding assay using [I125]-NDP-α-MSH, hMCR-1a membranes; details: HEK-293 membranes, recombinant human MCR-1, [I125]-NDP-α-MSH; read-out: MC-1 Ki (average)
T3 construct: expressed in transfected cells; host or cells: HEK-293 cells (membrane homogenates)
T3 sequence (Q01726 whole entry): as above
Protocol: as §1, §2

| SMILES | Ki [1] | Emax [2] | Ki [3] |
| --- | --- | --- | --- |
| CCCC[C@H](NC(C)=O)C(=O)N[C@@H](C)C(=O)N[C@@H](CCN)C(=O)N[C@H](Cc1ccccc1)C(=O)N[C@@H](CCCNC(=N)N)C(=O)N[C@@H](C)C(=O)N[C@@H](Cc1c[nH]c2ccccc12)C(N)=O [Example 9.22, Ac-Nle-Ala-Dab-D-Phe-Arg-Ala-Trp-NH2] (Ac-[Nle]A[Dab][dF]RAW-NH2) | 7850 nM | 101% | 2 nM |
| CCCC[C@H](NC(C)=O)C(=O)N[C@@H](C)C(=O)N[C@@H](Cc1c[nH]cn1)C(=O)N[C@H](Cc1ccccc1)C(=O)N[C@@H](CCCNC(=N)N)C(=O)N[C@@H](C)C(=O)N[C@H](Cc1c[nH]c2ccccc12)C(N)=O [Example 9.9, Ac-Nle-Ala-His-D-Phe-Arg-Ala-D-Trp-NH2] (Ac-[Nle]AH[dF]RA[dW]-NH2) | 215 nM | 70% | 7 nM |
| CCCC[C@H](NC(C)=O)C(=O)N[C@@H](C)C(=O)N[C@@H](CCCN)C(=O)N[C@H](Cc1ccccc1)C(=O)N[C@@H](CCCNC(=N)N)C(=O)N[C@@H](C)C(=O)N[C@@H](Cc1c[nH]c2ccccc12)C(N)=O [Example 9.21, Ac-Nle-Ala-Orn-D-Phe-Arg-Ala-Trp-NH2] (Ac-[Nle]A[Orn][dF]RAW-NH2) | 7580 nM | 107% | 0.3 nM |
| CCCC[C@H](NC(C)=O)C(=O)N[C@H](Cc1ccccc1)C(=O)N[C@@H](CCCNC(=N)N)C(=O)N[C@@H](C)C(=O)N[C@@H](Cc1c[nH]c2ccccc12)C(N)=O [Example 9.15, Ac-Nle-D-Phe-Arg-Ala-Trp-NH2] (Ac-[Nle][dF]RAW-NH2) | 7120 nM | 67% | 1290 nM |
